From patent US9695481B2, “Polynucleotides comprising a reporter sequence operatively linked to a regulatory element” (UNIVERSITEIT LEIDEN, priority 2010, dated 2017)
“Also recorded” adds a separate entry of the source. Where a name gives a salt, the structure may show the parent alone. Read-outs that look alike come from different tables or passages of the source.

What was measured:
[1] = tested on: Bscl2-GFP mES reporter cells; assay: Bscl2-GFP genotoxicity reporter; conditions: for Bscl2-GFP reporter induction: 24 h exposure
[2] = tested on: Srxn1-GFP mES reporter cells; assay: Srxn1-GFP oxidative stress reporter; conditions: for Srxn1-GFP reporter induction: 24 h exposure, flow cytometry
[3] = tested on: Bscl2-GFP and Srxn1-GFP mES reporter cells
Salmonella = conditions: cited from earlier work
[4] = cited from earlier work
[5] = Genotoxicity profile; data extracted from Kirkland et al. 2008; cited from earlier work
[6] = tested on: mouse ES cell lines containing a DsRed fluorescent reporter; conditions: cited from earlier work
[7] = tested on: mouse ES cell lines containing a DsRed fluorescent reporter
[8] = tested on: Srxn1-GFP mES reporter cells
[9] = from which GFP reporter is induced
[10] = Genotoxicity profile, data extracted from Kirkland et al. 2008

Row | Compound | Bscl2-GFP/Srxn1-GFP GFP Induction [3] | In vivo genotoxicity [4, 10] | In vitro genotoxicity [5] | mES DsRed reporters ([6]; Hendriks et al. 2011) | Bscl2-GFP/Srxn1-GFP Prim. toxic properties [3] | Ames test (Salmonella; [10]) | other results
1 | C[C@@]1(CO)[C@H](O)CC[C@@]2(C)[C@H]1CC[C@H]1C[C@@H]3C[C@@]12CC[C@]3(O)CO [Aph, aphidicolin] | – | – | – | – | – | – | Bscl2-GFP reporter induction ([1]; flow cytometry): significant induction of GFP expression; Srxn1-GFP reporter induction [2]: slight reporter activation; also recorded: slightly activated
2 | [Cl][Cd][Cl] [Cadmium Chloride] | Pos. (considered positive when exposure to at least two different concentrations of a compound resulted in >1.5 fold induction of GFP expression) | Pos. | Pos. | Pos. | – | – | Bscl2-GFP/Srxn1-GFP Prim. toxic properties [3, 9]: Pro-oxidant; Ames test (Salmonella): Pos.; Srxn1-GFP reporter induction [2]: Specific activation; also recorded: highly responsive; Srxn1-GFP reporter induction ([2]; listed as CdCl2): strong, concentration-dependent increase in expression of the GFP reporter
3 | N.N.[Cl][Pt][Cl] [Cisplatin] | Pos. (considered positive when exposure to at least two different concentrations of a compound resulted in >1.5 fold induction of GFP expression) | – | – | Pos. | – | – | DsRed reporter expression/activation [7]: clear induction of DsRed expression; mRNA expression of Ephx1-DsRed reporter and endogenous Ephx1 gene ([7]; quantitative RT-PCR, up to 24 h): transcriptionally activated; GFP expression in Srxn1, Bscl2 and Btg2 GFP reporter cell lines ([3]; BAC TransgeneOmics lines, 30 hrs exposure, flow cytometry): increased; time at which Bscl2-GFP expression became visible ([1]; 5 uM CisPt, live cell imaging): 12 h; Srxn1-GFP reporter induction, live cell imaging ([2]; 5 uM CisPt or 100 uM DEM, up to 24 h): hardly responsive; Srxn1-GFP reporter induction ([2]; listed as CisPt): also induced by the genotoxic compounds, albeit to a lesser extent; also recorded: slightly activated; Srxn1-GFP reporter induction (mRNA) ([2]; quantitative RT-PCR, 8 or 16 h): somewhat responsive
4 | CCOC(=O)/C=C\C(=O)OCC [Diethyl maleate] | – | – | – | Pos. | Pro-oxidant | – | DsRed reporter expression/activation [7]: clear induction of DsRed expression; GFP expression in Srxn1, Bscl2 and Btg2 GFP reporter cell lines [3]: increased; Srxn1-GFP reporter induction (mRNA) [8]: highly induced; exposure time after which Srxn1-GFP expression reached a plateau ([2]; 100 uM DEM, live cell imaging): 24 h; exposure time after which Srxn1-GFP expression was clearly detectable ([2]; 100 uM DEM, live cell imaging): 8 h
5 | COc1cccc2c1C(=O)c1c(O)c3c(c(O)c1C2=O)C[C@@](O)(C(=O)CO)C[C@@H]3O[C@H]1C[C@H](N)[C@H](O)[C@H](C)O1 [Doxorubicin] | – | Pos. | Pos. | Pos. | Genotoxin | Pos. | GFP expression in Srxn1, Bscl2 and Btg2 GFP reporter cell lines [3]: increased; Srxn1-GFP reporter induction [8]: also induced by the genotoxic compounds, albeit to a lesser extent
6 | COc1cc([C@@H]2c3cc4c(cc3[C@@H](O[C@@H]3O[C@@H]5CO[C@@H](C)O[C@H]5[C@H](O)[C@H]3O)[C@H]3COC(=O)[C@H]23)OCO4)cc(OC)c1O [Etoposide] | – | Pos. | Pos. | – | Genotoxin | – | Srxn1-GFP reporter induction [8]: also induced by the genotoxic compounds, albeit to a lesser extent
7 | ClC(Cl)(Cl)C(Cl)(Cl)Cl [Hexachloroethane] | Neg. | Neg. | Neg. | Neg. | – | Neg. | –
8 | OO [Hydrogen peroxide] | – | Neg. | Pos. | Neg. | Pro-oxidant | Pos. | –
9 | COS(C)(=O)=O [MMS, methyl methanesulphonate] | Pos. (considered positive when exposure to at least two different concentrations of a compound resulted in >1.5 fold induction of GFP expression) | – | – | – | – | Pos. | DsRed reporter expression/activation [7]: clear induction of DsRed expression; Bscl2-GFP/Srxn1-GFP Prim. toxic properties [3, 9]: Pro-oxidant; In vivo genotoxicity ([4]; in vivo): Pos.; mES DsRed reporters [6]: Pos.
10 | CC(=O)N[C@@H](CS)C(=O)O [NAC, N-acetyl cysteine] | – | – | – | – | – | – | effect of scavenger alone on cell viability and reporter activity ([3]; data not shown): did not affect cell viability or reporter activity; effect on Srxn1-GFP reporter activation by pro-oxidants ([2]; co-incubation with DEM, CuSO4, NaAsO2, CdCl2 or MMS, 24 h): completely inhibited activation of the reporter; effect on Srxn1-GFP reporter activation by CisPt ([2]; data not shown): significantly reduced reporter activation
11 | CCCOC(=O)c1cc(O)c(O)c(O)c1 [Propyl gallate] | – | Equivocal | Pos. | Pos. | Equivocal | Neg. | –
12 | c1ccncc1 [Pyrldlne] | Neg. | Neg. | Neg. | Neg. | – | Neg. | –
13 | O=[As]O [Sodium arsenite] | Pos. (considered positive when exposure to at least two different concentrations of a compound resulted in >1.5 fold induction of GFP expression) | Pos. | Pos. | Pos. | – | Neg. | Bscl2-GFP/Srxn1-GFP Prim. toxic properties [3, 9]: Pro-oxidant; Bscl2-GFP reporter induction ([1]; flow cytometry): hardly responded; Bscl2-GFP reporter induction ([1]; flow cytometry, listed as NaAsO2): not induced; Srxn1-GFP reporter induction [2]: Specific activation; also recorded: highly responsive; Srxn1-GFP reporter induction ([2]; listed as NaAsO2): strong, concentration-dependent increase in expression of the GFP reporter; also recorded: preferentially induced
14 | CC(C)(C)c1cc(O)ccc1O [Tert-butylhydroquinone] | – | Neg. | Pos. | Pos. | Pro-oxidant | Neg. | –
15 | CCCCC(CC)COP(=O)(OCC(CC)CCCC)OCC(CC)CCCC (centres unmarked) [Tris(2-ethylhexyl)phosphate] | Neg. | Neg. | Neg. | Neg. | – | Neg. | –
16 | CN[C@@H]1C[C@H]2O[C@@](C)([C@@H]1OC)n1c3ccccc3c3c4c(c5c6ccccc6n2c5c31)C(=O)N[C@@H]4O [UCN-01] | – | – | – | – | – | – | effect on Bscl2-GFP reporter activation by CisPt or Aph ([1]; 10 uM CisPt or 1.5 uM Aph, 24 h, flow cytometry): almost completely be repressed
17 | Cc1cccc(Nc2cc(Cl)nc(SCC(=O)O)n2)c1C [Wyeth-14,643] | – | – | – | – | – | – | DsRed reporter expression/activation [7]: did not induce any reporter activation
18 | CC/C(=C(/CC)c1ccc(O)cc1)c1ccc(O)cc1 [diethylstilbestrol] | – | – | – | – | – | – | DsRed reporter expression/activation [7]: did not induce any reporter activation
19 | Cc1c2ccccc2c(C)c2c1ccc1ccccc12 [dimethylbenz(a)antracene] | – | – | – | – | – | – | Bscl2-GFP reporter induction with metabolic activation ([1]; 3 h with/without S9 rat liver extract, GFP after 24 h, flow cytometry): induced expression of the Bscl2-GFP reporter only when incubated in the presence of rat S9 mix; survival of Bscl2-GFP reporter cells after S9-dependent activation ([1]; fraction of intact cells, flow cytometry): reduced survival
20 | Nc1ccccc1C(=O)O [o-anthranilic acid] | Neg. | Neg. | Pos. | Pos. | – | Neg. | –
21 | Mitomycin C | Pos. (key: Pos.: considered positive when exposure to at least two different concentrations of a compound resulted in >1.5 fold induction of GFP expression) | – | – | – | Genotoxin | – | GFP expression in Srxn1, Bscl2 and Btg2 GFP reporter cell lines [3]: increased; Srxn1-GFP reporter induction [8]: also induced by the genotoxic compounds, albeit to a lesser extent
22 | aflatoxin B1 | – | – | – | – | – | – | Bscl2-GFP reporter induction with metabolic activation [1]: induced expression of the Bscl2-GFP reporter only when incubated in the presence of rat S9 mix
